Laboratory results: article PMC5971061, “Differential Effects of Linkers on the Activity of Amphiphilic Tobramycin Antifungals” (Molecules : A Journal of Synthetic Chemistry and Natural …, 2018)
Values after ≈ are worked out from the molar mass of the structure shown. Like-named read-outs stand apart in the source and are kept apart here.

Columns and labels:
[1] = system: Aspergillus flavus ATCC MYA-3631 (strain K); experiment: MIC, filamentous fungi (CLSI M38-A2), strain K; type: cell-based; conditions: MIC-0, strain K, 35 °C 72 h
Description: The spores were harvested from sporulating cultures growing on potato dextrose agar (PDA) by filtration through sterile glass wool and enumerated by using a hemocytometer (Hausser Scientific, Horsham, PA, USA) to obtain the desired inoculum size. Two-fold serial dilutions of compounds 3, 4, 7a, 7b, 9, and 16, as well as CAS and TOB were made in sterile 96-well microtiter plates to obtain the final concentration range of 0.24–62.5 μg/mL for TOB and TOB derivatives as well as 0.03–31.3 μg/mL for CAS in the RPMI 1640 medium. The spore suspensions were added to the wells to afford a final concentration of 5 × 10^5 spores/mL. The plates were incubated at 35 °C for 72 h. […] Each test was performed in triplicate.

[2] = system: murine red blood cells (mRBCs); experiment: Hemolytic activity assay; type: cell-based; conditions: at 3.9 μg/mL, 2- to 8-fold their MIC values against the three C. neoformans clinical isolates
Description: (§1) The hemolytic activity of compounds 3, 4, 7a, 7b, and 9 as well as the parent compound TOB was determined by using previously described methods with minor modifications. Murine whole blood (1 mL) was suspended in 4 mL of PBS and centrifuged at 1000 rpm for 10 min at room temperature to obtain murine red blood cells (mRBCs). The mRBCs were washed four times in PBS and resuspended in the same buffer to a final concentration of 10^7 erythrocytes/mL. Two-fold serial dilutions of compounds 3, 4, 7a, 7b, and 9 were prepared using 100 μL of PBS buffer in Eppendorf tubes followed by the addition of 100 μL of mRBC suspension that made the final concentration of compounds and mRBCs to be 0.48–62.5 μg/mL and 5 × 10^6 erythrocytes/mL, respectively. The tubes were incubated at 37 °C for 1 h. The tubes with PBS buffer (200 μL) and Triton X-100® (1% v/v, 2 μL) served as the negative (blank) and positive controls, respectively. The percentage of hemolysis was calculated using the following equation: % hemolysis = [(absorbance of sample) − (absorbance of blank)] × 100/(absorbance of positive control).

Hemolytic activity assay = type: cell-based, murine; conditions: mouse, murine red blood cells (mRBCs); for hemolysis at 1 h, 0.48 μg/mL / hemolysis at 1 h, 0.975 μg/mL / hemolysis at 1 h, 1.95 μg/mL / hemolysis at 1 h, 3.9 μg/mL / hemolysis at 1 h, 7.8 μg/mL / hemolysis at 1 h, 15.6 μg/mL / hemolysis at 1 h, 31.3 μg/mL / hemolysis at 1 h, 62.5 μg/mL: mRBCs, 37 °C 1 h, ± SDEV; for hemolysis at 1 h: at their MIC values against the Aspergillus strains
Description: as §1

[3] = system: C. albicans ATCC 10231 (strain A); experiment: MIC, broth microdilution (CLSI M27-A3), yeast strain A; type: cell-based, Candida albicans; conditions: Candida albicans, ATCC10231; MIC-0, strain A, 35 °C 48 h
Description: (§2) The final concentrations of compounds 3, 4, 7a, 7b, 9, and 16, as well as that of TOB tested in this study ranged from 0.24–62.5 μg/mL. CAS was used as a positive control and the final concentrations tested for CAS ranged from 0.03–31.3 μg/mL. Briefly, overnight yeast cultures were grown in yeast peptone dextrose (YPD) broth and the cell density was adjusted to an OD600 of 0.12 (~1 × 10^6 CFU/mL) by using a spectrophotometer. Yeast cell suspensions were further diluted to achieve 1–5 × 10^3 CFU/mL in RPMI 1640 medium, and 100 μL of these yeast cells was added to 96-well microtiter plates containing RPMI 1640 medium and titrated compounds. Each test was performed in triplicate. The plates were incubated at 35 °C for 48 h.

[4] = system: Candida glabrata ATCC 2001 (strain H); experiment: MIC, broth microdilution (CLSI M27-A3), yeast strain H; type: cell-based; conditions: Nakaseomyces glabratus, ATCC2001; MIC-0, strain H, 35 °C 48 h
Description: as §2

[5] = system: C. albicans ATCC MYA-2310(S) (strain E); experiment: MIC, broth microdilution (CLSI M27-A3), yeast strain E; type: cell-based; conditions: Candida albicans; MIC-0, strain E, 35 °C 48 h
Description: as §2

[6] = system: C. albicans ATCC MYA-1003(R) (strain G); experiment: MIC, broth microdilution (CLSI M27-A3), yeast strain G; type: cell-based; conditions: Candida albicans; MIC-0, strain G, 35 °C 48 h
Description: as §2

[7] = system: Candida parapsilosis clinical isolate CP3; experiment: MIC, broth microdilution (CLSI M27-A3), CP3; type: cell-based; conditions: MIC-0, CP3, 35 °C 48 h
Description: as §2

[8] = system: Candida parapsilosis clinical isolate CP1; experiment: MIC, broth microdilution (CLSI M27-A3), CP1; type: cell-based; conditions: Lodderomyces parapsilosis; MIC-0, CP1, 35 °C 48 h
Description: as §2

[9] = system: C. albicans ATCC MYA-1237(R) (strain F); experiment: MIC, broth microdilution (CLSI M27-A3), yeast strain F; type: cell-based; conditions: Candida albicans; MIC-0, strain F, 35 °C 48 h
Description: as §2

A549 cell line = experiment: In vitro cytotoxicity assay (resazurin), A549; type: cell-based, human; conditions: for IC50: Homo sapiens, A549, 24 h, resazurin
Description: Mammalian cytotoxicity assays were performed as previously described with minor modifications. The normal human bronchial epithelial cells BEAS-2B and the human lung carcinoma epithelial cells A549 were grown in DMEM containing 10% fetal bovine serum (FBS) and 1% antibiotics. The confluent cells were then trypsinized with 0.05% trypsin and 0.53 mM EDTA, and resuspended in fresh DMEM medium. The cells were transferred into 96-well microtiter plates at a density of 3000 cells/well and were grown for 24 h. The following day, the medium was replaced by a fresh culture medium containing serially diluted compounds 3, 4, 7a, 7b, and 9, as well as the parent drug TOB at final concentrations of 0.48–62.5 μg/mL or sterile ddH2O (negative control). The cells were incubated for an additional 24 h at 37 °C with 5% CO2 in a humidified incubator. To evaluate cell survival, each well was treated with 10 μL (25 μg/mL) of resazurin sodium salt (Sigma-Aldrich) for 4–6 h. Metabolically active cells can convert resazurin (blue) to the highly fluorescent dye resorufin (pink), which was detected at λ560 excitation and λ590 emission wavelengths by using a SpectraMax M5 plate reader. Triton X-100® (1% v/v) gave the complete loss of cell viability and was used as the positive control. The percentage survival rates were calculated by using the following formula: % cell survival = [(fluorescence of sample) − (fluorescence of blank)] × 100/[(fluorescence of negative control) − (fluorescence of blank)].

[10] = Aspergillus flavus, 72 h, read-out: MIC

Structure (SMILES) | MIC [1, 10] | mRBCs lysed [2] | hemolysis at 1 h, 0.48 μg/mL (Hemolytic activity assay) | hemolysis at 1 h, 0.975 μg/mL (Hemolytic activity assay) | hemolysis at 1 h, 1.95 μg/mL (Hemolytic activity assay) | hemolysis at 1 h, 3.9 μg/mL (Hemolytic activity assay) | hemolysis at 1 h, 7.8 μg/mL (Hemolytic activity assay) | hemolysis at 1 h, 15.6 μg/mL (Hemolytic activity assay) | hemolysis at 1 h, 31.3 μg/mL (Hemolytic activity assay) | hemolysis at 1 h, 62.5 μg/mL (Hemolytic activity assay) | hemolysis at 1 h (Hemolytic activity assay) | MIC [3] | MIC [4] | MIC [5] | MIC [6] | MIC [7] | MIC [8] | MIC [9] | IC50 (A549 cell line) | other results
CCCCCCCCCCCCSC[C@H]1O[C@H](O[C@@H]2[C@@H](O)[C@H](O[C@H]3O[C@H](CN)[C@@H](O)C[C@H]3N)[C@@H](N)C[C@H]2N)[C@H](O)[C@@H](N)[C@@H]1O [Compound 3, O-3-Amino-3-deoxy-6-S-dodecyl-6-thio-α-D-glucopyranosyl-(1→6)-O-[2,6-diamino-2,3,6-trideoxy-α-D-ribo-hexopyranosyl-(1→4)]-2-deoxy-D-streptamine] | 7.8 to 31.3 µg/mL (≈ 12 to 48 µM) | up to 13% | 0% | 2.5 ± 2.3% | 6 ± 3.5% | 12 ± 1.9% | 18.6 ± 6.6% | 46.2 ± 2.3% | 55.5 ± 3.9% | 67 ± 4.6% | 12 to 74% | 15.6 µg/mL (≈ 23.9 µM) | 7.8 µg/mL (≈ 12 µM) | 15.6 µg/mL (≈ 23.9 µM) | 15.6 µg/mL (≈ 23.9 µM) | 15.6 µg/mL (≈ 23.9 µM) | 15.6 µg/mL (≈ 23.9 µM) | 7.8 µg/mL (≈ 12 µM) | – | MIC [1]: 15.6 µg/mL (≈ 23.9 µM)
CCCCCCCCCCCCS(=O)(=O)C[C@H]1O[C@H](O[C@@H]2[C@@H](O)[C@H](O[C@H]3O[C@H](CN)[C@@H](O)C[C@H]3N)[C@@H](N)C[C@H]2N)[C@H](O)[C@@H](N)[C@@H]1O [Compound 4, O-3-Amino-3,6-dideoxy-6-(dodecylsulfonyl)-α-D-glucopyranosyl-(1→6)-O-[2,6-diamino-2,3,6-trideoxy-α-D-ribo-hexopyranosyl-(1→4)]-2-deoxy-D-streptamine] | – | up to 13% | 0% | 0% | 6.6 ± 3.5% | 6 ± 1.9% | 10.7 ± 3.1% | 15.3 ± 5% | 24.9 ± 2.3% | 31.2 ± 6.6% | 4 to 32% | 15.6 µg/mL (≈ 22.8 µM) | 15.6 µg/mL (≈ 22.8 µM) | 15.6 µg/mL (≈ 22.8 µM) | 15.6 µg/mL (≈ 22.8 µM) | 7.8 µg/mL (≈ 11.4 µM) | 3.9 µg/mL (≈ 5.7 µM) | 15.6 µg/mL (≈ 22.8 µM) | > 62.5 µg/mL | –
CCCCCCCCCCc1cn(C[C@H]2O[C@H](O[C@@H]3[C@@H](O)[C@H](O[C@H]4O[C@H](CN)[C@@H](O)C[C@H]4N)[C@@H](N)C[C@H]3N)[C@H](O)[C@@H](N)[C@@H]2O)nn1 [Compound 7a, O-3-Amino-3,6-dideoxy-6-(4-decyl-1H-1,2,3-triazol-1-yl)-α-D-glucopyranosyl-(1→6)-O-[2,6-diamino-2,3,6-trideoxy-α-D-ribo-hexopyranosyl-(1→4)]-2-deoxy-D-streptamine] | – | up to 13% | 0% | 0% | 15.6 ± 9.3% | 0% | 7.4 ± 3.1% | 14 ± 5.4% | 14.8 ± 1.9% | 14.8 ± 0.4% | – | 31.3 µg/mL (≈ 47.5 µM) | 62.5 µg/mL (≈ 94.9 µM) | 31.3 µg/mL (≈ 47.5 µM) | 62.5 µg/mL (≈ 94.9 µM) | 31.3 µg/mL (≈ 47.5 µM) | 15.6 µg/mL (≈ 23.7 µM) | 62.5 µg/mL (≈ 94.9 µM) | > 62.5 µg/mL | –
NC[C@H]1O[C@H](O[C@H]2[C@H](O)[C@@H](O[C@H]3O[C@H](CO)[C@@H](O)[C@H](N)[C@H]3O)[C@H](N)C[C@@H]2N)[C@H](N)C[C@@H]1O [TOB, tobramycin] | > 62.5 µg/mL | – | 4.7 ± 3.9% | 9.3 ± 3.5% | 15.9 ± 1.9% | 15.9 ± 8.1% | 11.2 ± 4.6% | 15.3 ± 5% | 15.3 ± 2.7% | 21.1 ± 9.3% | – | > 62.5 µg/mL | > 62.5 µg/mL | > 62.5 µg/mL | > 62.5 µg/mL | > 62.5 µg/mL | > 62.5 µg/mL | > 62.5 µg/mL | – | toxicity (in words) (A549 cell line; A549, 0.48-62.5 μg/mL, 24 h): little to no toxicity
